# Measurements reported in patent publication US20070004634A1 (Novo Nordisk A/S, priority 1998, published 2007).
# Residues, ends and D or L forms follow the SMILES beside them. No end group written: not given here.
# What was measured:
# [1] = tested on: IR; assay: IR activity (agonist/antagonist) of MBP-peptide fusions, Table 10; test not named; conditions: MBP-peptide fusion proteins; one symbol per monomer unit
# [2] = tested on: FDC-P2 cells expressing the IL-3 and human IGF-1R receptors; assay: IGF-1 proliferation assay in FDC-P2 cells, antagonist format; conditions: for antagonist activity at IGF-1R, in words / EC50: FDC-P2 cells; for FDC-P2 Antagonist: FDC-P2 cell proliferation, antagonist effect; for EC50: read-out: ED50, antagonist activity at IGF-1R, 10 ng/ml IGF-1 test medium
# [3] = tested on: FDC-P2 cells expressing the IL-3 and human IGF-1R receptors; assay: IGF-1 proliferation assay in FDC-P2 cells, agonist format
# [4] = target: T1, IGF-1R (Homo sapiens, UniProt P08069); assay: Phage competition ELISA on IGF-1R; type: binding; design: included the heterotetrameric (alpha 2-beta 2) extracellular domain of IGF-1R; purchased R&D Systems 391-GR/CF; host or cells: mouse myeloma cell line; conditions: phage RP9, RP6, D8B12, D815
# T1 sequence (P08069 31-736 limits assumed): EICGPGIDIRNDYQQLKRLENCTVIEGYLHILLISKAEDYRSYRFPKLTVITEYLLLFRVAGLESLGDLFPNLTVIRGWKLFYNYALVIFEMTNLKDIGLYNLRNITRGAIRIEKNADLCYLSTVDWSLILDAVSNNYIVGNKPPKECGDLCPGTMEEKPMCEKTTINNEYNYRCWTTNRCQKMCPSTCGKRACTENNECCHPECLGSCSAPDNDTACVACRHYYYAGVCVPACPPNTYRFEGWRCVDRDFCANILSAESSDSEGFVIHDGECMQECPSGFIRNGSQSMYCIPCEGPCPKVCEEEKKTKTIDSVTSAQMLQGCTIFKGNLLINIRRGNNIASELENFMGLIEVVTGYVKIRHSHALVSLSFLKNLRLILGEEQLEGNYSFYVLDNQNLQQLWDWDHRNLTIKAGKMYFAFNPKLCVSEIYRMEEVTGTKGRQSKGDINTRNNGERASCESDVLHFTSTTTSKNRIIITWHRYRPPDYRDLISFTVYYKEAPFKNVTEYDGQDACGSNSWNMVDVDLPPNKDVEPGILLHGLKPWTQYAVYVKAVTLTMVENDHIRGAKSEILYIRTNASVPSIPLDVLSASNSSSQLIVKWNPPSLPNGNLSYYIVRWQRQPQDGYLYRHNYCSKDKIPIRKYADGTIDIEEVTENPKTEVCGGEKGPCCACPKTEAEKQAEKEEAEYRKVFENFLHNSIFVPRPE
# T1 sequence (P08069 741-935 limits assumed): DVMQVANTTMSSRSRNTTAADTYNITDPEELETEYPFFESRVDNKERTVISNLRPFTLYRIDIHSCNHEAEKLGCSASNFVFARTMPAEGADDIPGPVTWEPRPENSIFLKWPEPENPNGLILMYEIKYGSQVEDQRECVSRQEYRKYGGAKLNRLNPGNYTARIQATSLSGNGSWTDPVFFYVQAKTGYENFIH
# Procedure: Wells were blocked with 4% non-fat milk in PBS for 60 min at room temperature. One hundred microliters of rescued phage were added to each well. […] The labeled antibody was incubated at room temperature for 60 min. After washing, 100 μl of ABTS was added per well and the plates read in a microtiter reader at […]. […] (Site 2). Peptides included RP9 and […]. Phage competition studies were also performed with Site 2-Site 1 dimer peptides containing 6- or 12-amino acid linkers. […] Wells were blocked with 4% non-fat milk in PBS for 60 min at room temperature. One hundred microliters of rescued phage were added to each well. Peptides in varying concentrations were added and the mixture incubated for 2 h at room temperature. […] The labeled antibody was incubated for 60 min at room temperature. After washing, 100 μl of ABTS was added per well and the plates read in a microtiter reader at […]. […] Linker sequences are underlined and shown below.
# [5] = tested on: MiaPaCa cells; assay: MiaPaCa cell proliferation assay, IGF-1R agonist format; type: cell-based, human; conditions: MiaPaCa cell proliferation, agonist effect
# [6] = tested on: MCF-7 cells; conditions: for MCF-7 Antagonist: MCF-7 cell proliferation, antagonist effect
# [7] = tested on: MiaPaCa cells; conditions: for MiaPaCa Antagonist: MiaPaCa cell proliferation, antagonist effect
# [8] = target: T1, IGF-1R; assay: TR-FRET dissociation of biotinylated-20E2 from rhIGF-1R; type: binding; conditions: peptides 100 μM, IGF-1 30 μM
# Procedure: Best fit non-linear regression analysis of the data, was used to determine dissociation rate constants. Each data point represents a single observation. […] Reactions were allowed to reach equilibrium for 6 h at RT.
# [9] = target: His-tagged soluble recombinant human IGF-IR (srhIGF-1R-his) (Homo sapiens, UniProt P08069); assay: ALPHAScreen competition, b-hIGF-1 binding to srhIGF-1R-his; conditions: read-out: Affin.; AlphaScreen assay versus IGF-1
# Chain of His-tagged soluble recombinant human IGF-IR (srhIGF-1R-his) (P08069 31-736 limits assumed): as the sequence (P08069 31-736 limits assumed) above
# Chain of His-tagged soluble recombinant human IGF-IR (srhIGF-1R-his) (P08069 741-935 limits assumed): as the sequence (P08069 741-935 limits assumed) above
# [10] = target: T2, insulin receptor construct transfected into 32D cells (Homo sapiens, UniProt P06213); assay: IR autophosphorylation assay in IR transfected 32D cells (ELISA); type: cell-based; conditions: tested as MBP fusion peptides
# T2 construct: expressed in transfected cells; host or cells: 32D cells (clone 969)
# T2 sequence (P06213 28-758 limits assumed): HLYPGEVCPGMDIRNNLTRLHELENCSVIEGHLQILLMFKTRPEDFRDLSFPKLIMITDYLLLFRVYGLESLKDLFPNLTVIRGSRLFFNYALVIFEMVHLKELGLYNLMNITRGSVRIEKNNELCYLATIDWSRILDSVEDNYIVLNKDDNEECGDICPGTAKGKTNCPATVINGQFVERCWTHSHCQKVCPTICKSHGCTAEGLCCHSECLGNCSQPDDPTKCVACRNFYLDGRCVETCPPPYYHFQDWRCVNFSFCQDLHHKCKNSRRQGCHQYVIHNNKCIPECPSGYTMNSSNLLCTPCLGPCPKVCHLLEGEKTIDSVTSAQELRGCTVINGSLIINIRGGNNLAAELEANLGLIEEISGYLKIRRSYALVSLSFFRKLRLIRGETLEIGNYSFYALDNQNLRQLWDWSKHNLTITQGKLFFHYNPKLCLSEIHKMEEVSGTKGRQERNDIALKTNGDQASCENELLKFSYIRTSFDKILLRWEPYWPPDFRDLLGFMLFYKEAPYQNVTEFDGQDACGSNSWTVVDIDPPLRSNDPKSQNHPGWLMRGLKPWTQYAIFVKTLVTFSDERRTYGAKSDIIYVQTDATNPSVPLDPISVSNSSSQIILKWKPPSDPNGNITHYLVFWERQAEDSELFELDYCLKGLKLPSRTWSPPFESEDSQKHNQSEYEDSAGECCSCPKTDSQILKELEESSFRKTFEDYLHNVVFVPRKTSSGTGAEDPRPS
# T2 sequence (P06213 763-1382 limits assumed): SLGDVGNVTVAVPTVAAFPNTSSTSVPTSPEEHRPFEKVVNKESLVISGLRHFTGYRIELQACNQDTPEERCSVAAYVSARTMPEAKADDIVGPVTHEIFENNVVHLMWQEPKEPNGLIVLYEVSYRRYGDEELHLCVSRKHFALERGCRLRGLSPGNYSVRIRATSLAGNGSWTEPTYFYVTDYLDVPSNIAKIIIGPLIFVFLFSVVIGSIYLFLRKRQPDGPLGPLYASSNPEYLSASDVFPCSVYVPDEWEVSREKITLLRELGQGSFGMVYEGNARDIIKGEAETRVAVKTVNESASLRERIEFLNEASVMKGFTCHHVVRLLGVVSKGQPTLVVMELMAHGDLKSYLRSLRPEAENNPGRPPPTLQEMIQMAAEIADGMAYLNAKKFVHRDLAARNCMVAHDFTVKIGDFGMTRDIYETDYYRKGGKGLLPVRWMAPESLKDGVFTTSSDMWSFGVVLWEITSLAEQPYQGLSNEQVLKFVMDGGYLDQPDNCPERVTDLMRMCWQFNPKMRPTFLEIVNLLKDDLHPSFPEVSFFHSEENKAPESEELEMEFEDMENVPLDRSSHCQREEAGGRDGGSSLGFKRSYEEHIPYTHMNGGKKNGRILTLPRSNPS
# Procedure: The IR transfected 32D cells were seeded at […] in 96-well tissue culture plates and incubated overnight at 37° C. […] The culture media was decanted from the cell culture plates, and the diluted samples were added to the cells. The plates were incubated at 37° C. for 30 min. The stimulation medium was decanted from the plates, and cell lysis buffer (50 mM HEPES pH 7.2, 150 mM NaCl, 0.5% Triton X-100, 1 mM AEBSF, 10 KIU/ml aprotinin, 50 μM leupeptin, and 2 mM sodium orthovanadate) was added. The cells were lysed for 30 min.
# In the ELISA portion of the assay, the cell lysates were added to the BSA-blocked anti-IR unit mAb (Upstate Biotechnology, Lake Placid, N.Y.) coated ELISA plates. After a 2 h incubation, the plates were washed 6 times with PBST and biotinylated anti-phosphotyrosine antibody (Upstate Biotechnology) is added. After another 2 h incubation, the plates were again washed 6 times. Streptavidin-Eu was then added, and the plates were incubated for 1 h. After washing the plates again, EG&G Wallac enhancement solution (100 mM acetone-potassium hydrogen pthalate, pH 3.2; 15 mM 2-naphtyltrifluoroacetate; 50 mM tri(n-octyl)-phosphine oxide; 0.1% Triton X-100) was added into each well, and the plates were placed onto a shaker for 20 min at RT.
# [11] = target: T3, soluble human insulin receptor-immunoglobulin heavy chain chimera (sIR-Fc) (Homo sapiens, UniProt P06213); assay: TR-FRET competition with biotinylated S175 (b-S175) for sIR-Fc; type: binding; conditions: Hill slope, target sIR-Fc, label b-S175
# T3 construct: replacing the transmembrane domain and the intracellular domain of IR with constant domains from immunoglobulin Fc or λ subunits; made in house; host or cells: human embryonic kidney 293 cells (Bass et al.)
# T3 sequence (P06213 28-758 limits assumed, stated change not applied): as the sequence (P06213 28-758 limits assumed) above
# T3 sequence (P06213 763-956 limits assumed, stated change not applied): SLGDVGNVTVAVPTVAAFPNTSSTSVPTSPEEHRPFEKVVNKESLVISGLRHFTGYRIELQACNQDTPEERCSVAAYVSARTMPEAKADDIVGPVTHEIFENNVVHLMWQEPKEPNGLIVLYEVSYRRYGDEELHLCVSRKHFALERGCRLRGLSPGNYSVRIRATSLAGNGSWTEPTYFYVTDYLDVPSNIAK
# [12] = target: T4, soluble HIR ectodomain (sIR) (Homo sapiens, UniProt P06213); assay: Fluorescence polarization, competition with FITC-RP9 for sIR; type: binding; conditions: Hill slope, target sIR, label FITC-RP9
# T4 construct: soluble HIR ectodomain (sIR); Kristensen et al., 1998
# T4 sequence (P06213 28-758 limits assumed): as the sequence (P06213 28-758 limits assumed) above
# T4 sequence (P06213 763-956 limits assumed): as the sequence (P06213 763-956 limits assumed, stated change not applied) above
# [13] = target: T3, soluble human insulin receptor-immunoglobulin heavy chain chimera (sIR-Fc); assay: Fluorescence polarization, competition with FITC-RP9 for sIR-Fc; type: binding; conditions: for potency / affinity at IR, in words: FP with FITC-RP9, summary of Table 22; for Hill, sIR-Fc, FITC-RP9, FP: Hill slope, target sIR-Fc, label FITC-RP9, fluorescence polarization
# [14] = target: T3, soluble human insulin receptor-immunoglobulin heavy chain chimera (sIR-Fc); assay: TR-FRET competition with biotinylated RP9 (b-RP9) for sIR-Fc; type: binding; conditions: Hill slope; target sIR-Fc; label b-RP9; TR-FRET
# [15] = tested on: free fat cells (adipocytes); assay: Adipocyte / free fat cell (FFC) assay, 3H glucose incorporation into lipid
# [16] = target: T1, IGF-1R; assay: TR-FRET competition with biotinylated-20E2 for rhIGF-1R; conditions: TR-FRET (rhIGF-1R, b-20E2) versus FP (sIR-Fc), summary of Table 22
# [17] = tested on: MCF-7 cells; assay: MCF-7 cell proliferation assay, IGF-1R agonist format; type: cell-based, human; conditions: MCF-7 cell proliferation, agonist effect
# From the text: ; FIGS. 65A-65F), and were used for subsequent experiments.
# [18] = target: T5, Insulin receptor (Homo sapiens, UniProt P06213); assay: BIAcore competition, IR binding to immobilized insulin
# T5 construct: replacing the transmembrane domain and the intracellular domain of IR with constant domains from immunoglobulin Fc or λ subunits; made in house; host or cells: human embryonic kidney 293 cells (Bass et al.)
# T5 sequence (P06213 28-758 limits assumed): as the sequence (P06213 28-758 limits assumed) above
# T5 sequence (P06213 763-956 limits assumed): as the sequence (P06213 763-956 limits assumed, stated change not applied) above
# Procedure: Flowcell-1 was used for background binding to correct for any non-specific binding. […] The surface was regenerated with 25 mM NaOH.
compound,measurement,setting,value
"437 (NNNNLGIEGRISEFIEGRAQPAMAFHENFYDWFVRQVSAAAGAPVPYPDPLEPRAA; also: MBP fusion, junction not given here) [Peptide 437]",Act. (activity),[1],N—N
CC[C@H](C)[C@@H]1NC(=O)[C@H](CCC(=O)O)NC(=O)[C@@H](NC(=O)[C@H](Cc2c[nH]c3ccccc23)NC(=O)[C@H](CC(C)C)NC(=O)[C@H](Cc2c[nH]c3ccccc23)NC(=O)[C@H](C)NC(=O)[C@H](CCCNC(=N)N)NC(=O)[C@H](CCC(=O)O)NC(=O)[C@H](CCC(N)=O)NC(=O)[C@H](CC(=O)O)NC(=O)[C@H](CC(C)C)NC(=O)[C@@H](N)Cc2c[nH]c3ccccc23)CSSC[C@@H](C(=O)N[C@@H](CC(C)C)C(=O)N[C@@H](CO)C(=O)O)NC(=O)CNC(=O)[C@H](CCCNC(=N)N)NC(=O)CNC(=O)[C@H](CO)NC1=O [Peptide D815],"antagonist activity at IGF-1R, in words",[2],no antagonist activity
same,FDC-P2 Agonist,"[3]; FDC-P2 cell proliferation, agonist effect",+
same,"agonist activity at IGF-1R, in words",[3]; FDC-P2 cells,IGF-1R agonist activity
same,EC50,"[3]; read-out: ED50, agonist activity at IGF-1R, FDC-P2 cells",~2000 nM
same,competition of Site 1 and Site 2 phage on IGF-1R,[4],competed both Site 1 and Site 2 phage
CC(C)C[C@H](NC(=O)[C@H](CS)NC(=O)[C@H](CO)NC(=O)[C@H](Cc1ccc(O)cc1)NC(=O)[C@H](Cc1ccccc1)NC(=O)[C@@H](N)[C@@H](C)O)C(=O)N[C@@H](C)C(=O)N[C@@H](CO)C(=O)N[C@@H](CC(C)C)C(=O)N[C@@H](CC(C)C)C(=O)N[C@H](C(=O)NCC(=O)N[C@H](C(=O)N1CCC[C@H]1C(=O)N[C@@H](CCC(N)=O)C(=O)N1CCC[C@H]1C(=O)N[C@@H](CC(N)=O)C(=O)N[C@@H](CCCNC(=N)N)C(=O)NCC(=O)N1CCC[C@H]1C(=O)N[C@@H](Cc1c[nH]c2ccccc12)C(=O)N[C@@H](CCC(=O)O)C(=O)N[C@@H](CCCNC(=N)N)C(=O)N[C@@H](CS)C(=O)N[C@@H](CCCNC(=N)N)C(=O)O)[C@@H](C)O)[C@@H](C)O [RP6] (H-TFYSCLASLLTGTPQPNRGPWERCR-OH; N-terminus and C-terminus assumed),MiaPaCa Agonist,[5],No
same,MCF-7 Antagonist,[6],+
same,FDC-P2 Antagonist,[2],+
same,"antagonist activity at IGF-1R, in words",[2],acted as an antagonist
same,EC50,[2],~1000 nM
same,"agonist activity at IGF-1R, in words",[3]; FDC-P2 cells,no agonist activity
same,MiaPaCa Antagonist,[7],No
same,effect on the rate of dissociation of b-20E2 from IGF-1R,[8],dissociation rates of b-20E2 were similar
CC(C)C[C@@H]1NC(=O)[C@@H](NC(=O)[C@H](CO)NC(=O)[C@H](Cc2ccc(O)cc2)NC(=O)[C@H](Cc2ccccc2)NC(=O)[C@@H](N)CO)CSSC[C@@H](C(=O)N[C@@H](CCCNC(=N)N)C(=O)N[C@@H](CCCCN)C(=O)N[C@@H](CCCCN)C(=O)O)NC(=O)CNC(=O)[C@H](CC(=O)O)NC(=O)[C@H](Cc2c[nH]c3ccccc23)NC(=O)[C@H](CCC(N)=O)NC(=O)CNC(=O)[C@H](CCCNC(=N)N)NC(=O)[C@H](CO)NC(=O)[C@H](CCCCN)NC(=O)[C@H](CCC(=O)O)NC(=O)[C@H](C)NC(=O)[C@@H]2CCCN2C(=O)CNC(=O)[C@H](CC(N)=O)NC(=O)[C@H](C(C)C)NC(=O)[C@H](CC(C)C)NC(=O)[C@H](CO)NC(=O)[C@H](CCC(=O)O)NC1=O [RP33-IGF with KK],IC50,[6]; MCF-7,100 nM
same,Activ.,[6]; proliferation assays in the presence of IGF-1 using MCF-7 and MiaPaCa cells,Antag.
same,IC50,[7]; MiaPaCa,700 nM
same,IC50,[9],9 nM
FHENFYDWFVRQVSKK [Peptide H2C],stimulation of autophosphorylation of IR,[10],stimulate autophosphorylation
same,"Hill, sIR-Fc, b-S175, FRET",[11],−0.82
same,"Hill, sIR, FITC-RP9, FP",[12],−0.49
same,effect on the rate of dissociation of b-20E2 from IGF-1R,[8],dissociation rates of b-20E2 were similar
same,"potency / affinity at IR, in words",[13],slightly less potent
same,"Hill, sIR-Fc, FITC-RP9, FP",[13],−0.27
same,"Hill, sIR-Fc, b-RP9, FRET",[14],−1.03
same,FFC,"[15]; free fat cell assay class, Table 9",+
same,"binding to IGF-1R compared with IR, in words",[16],lower binding ratios for IGF-1R over IR
GSLDESFYDWFERQLGKK [Peptide S371],"Hill, sIR-Fc, b-S175, FRET",[11],−0.45
same,"Hill, sIR, FITC-RP9, FP",[12],−0.29
same,MiaPaCa Agonist,[5],No
same,MCF-7 Antagonist,[6],No
same,FDC-P2 Antagonist,[2],+
same,EC50,[2],~7000 nM
same,"agonist activity at IGF-1R, in words",[3]; FDC-P2 cells,no agonist activity
same,Class,[3]; IGF-1R agonist or antagonist,N
same,MiaPaCa Antagonist,[7],No
same,competition of Site 1 and Site 2 phage on IGF-1R,[4],competed both Site 1 and Site 2 phage
same,"potency / affinity at IR, in words",[13],slightly less potent
same,"Hill, sIR-Fc, FITC-RP9, FP",[13],−0.41
same,"Hill, sIR-Fc, b-RP9, FRET",[14],−0.69
same,MCF-7 Agonist,[17],No
same,FFC,"[15]; FFC assay potency grade, 0, + to ++++++, −",+
same,FFC,"[15]; Table 5, free fat cell assay",+
same,FFC,"[15]; Table 6, free fat cell assay",+
same,"binding to IGF-1R compared with IR, in words",[16],lower binding ratios for IGF-1R over IR
KWLDQEWAWVQCEVYGRGCPSKK [Peptide D8],% Binding,"[18]; Table 13, peptide about 40 μM, IR 450 nM, IR alone 100",33%
"maltose binding protein [MBP, reference compound]",Result (RUs),"[18]; Table 12, IR 450 nM pre-incubated with insulin […], A7 (20A4)-MBP 4.1 μM, D8-MBP […], D10-MBP 3.4 μM, 447-MBP 11.5 μM or MBP 13 μM, IR alone 220 RU",209 RUs
